Assay [1] concerns spontaneously hypertensive rats. Kind of assay: Antihypertensive activity in spontaneously hypertensive rats (SHR), tail cuff systolic blood pressure. The note with it: for average reduction of the SBP: 1 h after administration, significantly different from control. Format: in vivo. How it is done: In this recognized model of hypertension, male spontaneously hypertensive rats (315 to 376 g) with systolic blood pressures (SBP) >160 mm Hg were used. Systolic blood pressures were recorded on conscious animals by a tail cuff method (FS-40 blood pressure/pulse monitor). Prior to all measurements, the rats were placed in a restraining cylinder. […] The pressures were monitored again 1, 2, 3, 4 and 24 h after administration of the test compounds. A control group (n=18) was included for comparison purposes.

Assay [2] has as its system Angiotensin I-Induced Contractions in Guinea-Pig Ileum. The experiment in a line: Inhibition of Angiotensin I-induced contractions in guinea-pig ileum. The note with it: final bath concentration 10 ng/ml; Angiotensin I 100 ng/ml; compound added 2 min before agonist; average of ilea from 5 guinea-pigs. How it is done:
Segments of 1.5 cm of freshly excised and washed terminal ileum were suspended in 25-ml tissue baths containing Tyrode's solution at 31° C. and bubbled with 95% O2 -5% CO2. With an initial load of 1.0 g, the resting tension after equilibration and the responses to Angiotensin I or Angiotensin II (both at 100 ng/ml) were monitored and recorded by means of an Ealing isometric transducer and a Lectromed polygraph. Several compounds of this invention were tested in this system, adding them to the bath 2 min. before the respective agonist.
At final bath concentrations of 10 ng/ml, the inhibitory effect of the tested compounds regarding the Angiotensin I-induced contractions was determined. The obtained results are given in Table I. All % inhibitions given therein are the average of results obtained with segments of ilea from 5 guinea-pigs. At final bath concentrations of 1 μg/ml none of the tested compounds produced an appreciable modification of the contractions induced by Angiotensin II.

Setting [3] is: oral 30 mg/kg, after 2, 3, 4 and 24 h, Duncan-Kramer test, p<0.05.

Take `C[C@H](CS)C(=O)N1CCC[C@H]1C(=O)O` [Captopril, D-3-mercapto-2-methylpropanoyl-L-proline, reference compound]: the “average reduction of the SBP” value in assay [1] (oral 30 mg/kg) is reported as 17.2±8.49 mm Hg. The “SBP reduction versus control” value in assay [1] (oral 30 mg/kg, after 24 h) is “inactive”. In assay [2], the “% Inhibition of Angiotensin I-induced contractions” value (“% Inhibition” for short) is reported as 28.9%.

As for `CCOC(=O)c1cccc(C(=O)N[C@@H](C)C(=O)N2CCC[C@H]2C(=O)OCC)n1` [Compound No. 8, N-[(2-Ethoxycarbonyl-6-pyridinyl)carbonyl]-L-alanyl-L-proline ethyl ester], the “average reduction of the SBP” value in assay [1] (oral 30 mg/kg) is listed as 32.6±7.49 mm Hg. Further, the “SBP reduction versus control” value in assay [1] (setting [3]) was “significantly different from the control”. Moreover, the “antihypertensive effect” value in assay [1] (oral 30 mg/kg, overall) is listed as “significant antihypertensive effect”; in assay [1] (oral doses of 7.5 and 15 mg/kg), “Antihypertensive effects were also observed”.

`CCOC(=O)[C@@H]1CCCN1C(=O)[C@H](C)NC(=O)c1ccc[nH]c1=O` [Compound No. 21, N-[(1,2-Dihydro-2-oxo-3-pyridinyl)carbonyl]-L-alanyl-L-prolineethyl ester]: the “SBP reduction, time course” value in assay [1] (oral 30 mg/kg, monitored 1, 2, 3, 4 and 24 h) was “significant reduction only after 2 h”. Further, the “antihypertensive effect” value in assay [1] (oral 30 mg/kg, overall) is “significant antihypertensive effect”. Moreover, the “SBP reduction” value in assay [1] (oral 45 mg/kg, after 2, 3, 4 and 24 h) is reported as “significant”. Further, the “% Inhibition” value in assay [2] is recorded as 30.7%.

Turning to `C[C@H](NC(=O)c1cccc(Cl)n1)C(=O)N1CCC[C@H]1C(=O)O` [Compound No. 24, N-[(6-Chloro-2-pyridinyl)carbonyl]-L-atanyl-L-proline], in assay [2], the “% Inhibition” value is 20.6%.

`C[C@H](NC(=O)c1cc[nH]c(=S)c1)C(=O)N1CCC[C@H]1C(=O)O` [Compound No. 27, N-[(1,2-dihydro-2-thioxo-4-pyridinyl)carbonyl]-L-alanyl-L-proline]: in assay [1] (oral 30 mg/kg), the “average reduction of the SBP” value turned out to be 28.4±3.16 mm Hg. Also, in assay [1] (setting [3]), the “SBP reduction versus control” value is recorded as “significantly different from the control”. In addition, the “antihypertensive effect” value is recorded as “significant antihypertensive effect” in assay [1] (oral 30 mg/kg, overall); “Antihypertensive effects were also observed” in assay [1] (oral doses of 7.5 and 15 mg/kg). Moreover, the “% Inhibition” value in assay [2] came to 18.1%.

Take `C[C@H](NC(=O)c1ccc(=S)[nH]c1)C(=O)N1CCC[C@H]1C(=O)O` [Compound No. 29, N-[(1,6-dihydro-6-thioxo-3-pyridinyl)carbonyl]-L-alanyl-L-proline]: the “% Inhibition” value in assay [2] worked out at 16.2%.

For the compound `C[C@H](NC(=O)c1ccc(=O)[nH]c1)C(=O)N1CCC[C@H]1C(=O)O` [Compound No. 35, N-[(1,6-dihydro-6-oxo-3-pyridinyl)carbonyl]-L-alanyl-L-proline], in assay [2], the “% Inhibition” value is on record as 16.0%.

For the origin of these results see patent US5432159A, “N-(α-substituted-pyridinyl)carbonyl dipeptide antihypertensive agents” (Lacer S.A., priority 1991, dated 1995).
